Numbers after ± are expanded uncertainties. Values belong to the compound of their own block, whether it stands above or below them.
How the values were obtained:
[1] = Solid-liquid equilibrium temperature; conditions: 101.3 kPa, Conductivity measurements
[2] = excess molar enthalpy (molar enthalpy of mixing); xn = mol fraction of the nth substance listed; conditions: 505 K, 101 kPa, Liquid, Calvet calorimetry

Solid-liquid equilibrium temperature ([1]; Crystal 1): 488 ± 1 K
SMILES: O=S(=O)([O-])O.[K+] [hydrogen potassium sulfate]

Solid-liquid equilibrium temperature ([1]; Crystal): 458 ± 1 K
SMILES: O=S(=O)([O-])O.[Na+] [sulfuric acid, monosodium salt]

excess molar enthalpy ([2]; x2 = 0.1135): -0.043 ± 0.0043 kcal/mol
excess molar enthalpy ([2]; x2 = 0.2137): -0.1 ± 0.01 kcal/mol
excess molar enthalpy ([2]; x2 = 0.4029): -0.126 ± 0.0127 kcal/mol
excess molar enthalpy ([2]; x2 = 0.4978): -0.145 ± 0.0146 kcal/mol
excess molar enthalpy ([2]; x2 = 0.5883): -0.143 ± 0.0143 kcal/mol
excess molar enthalpy ([2]; x2 = 0.7186): -0.123 ± 0.0124 kcal/mol
excess molar enthalpy ([2]; x2 = 0.8521): -0.069 ± 0.00693 kcal/mol
SMILES: O=S(=O)([O-])O.[Na+] [sulfuric acid, monosodium salt] + O=S(=O)([O-])O.[K+]

— the NIST ThermoML archive (doi:10.1016/j.tca.2005.11.022)
